Results reported in US20140094413A1, “HEPATOCYTE GROWTH FACTOR (HGF) MIMICS AS THERAPEUTIC AGENTS” (WASHINGTON STATE UNIVERSITY, priority 2012, published 2014).
Entries after “also recorded” stand apart in the source; their conditions may differ. Where a SMILES comes first, the peptide text is derived from it. [ ]: non-standard residue; d: D form. The star is where a group is joined. Hexanoyl = CCCCCC(=O)*; Ahx = NCCCCCC(=O)O

Assays:
[1] = system: Dissociated hippocampal neurons; test: Neuroprotection from oxidative stress (H2O2); assay type: cell-based; conditions: 100 μM H2O2 24 hrs +/−HGF 5 ng/ml; Dihexa 10^−10 M and 10^−8M
Description: FIG. 40. […] Dissociated hippocampal neurons were treated with 100 μM H2O2 for 24 hrs+/−HGF at sub-threshold concentrations 5 ng/ml and or Dihexa at 2 different concentrations 10^−10 M and 10^−8M. (*p<0.05,**p<0.01).

6-OHDA lesioned rats = test: Unilateral 6-OHDA substantia nigra lesion model; assay type: in vivo, rat
Description: FIG. 41. Dihexa restores performance in the rope hang test. Two weeks after producing a unilateral lesion with 6-OHDA in the substantia nigra, rats were treated with either 0.5 mg/kg of Dihexa or equivalent volumes of the vehicle ip.
FIG. 42A-C. Dihexa restored normal walking in the gait analysis test. Two weeks after producing a unilateral lesion with 6-OHDA in the substantia nigra, rats were treated with either 0.5 mg/kg of Dihexa or equivalent volumes of the vehicle ip. […] A, animal foot prints; B, left stride length; C, right stride length. Note that the dragging of the left hind leg observed in the untreated lesioned rats was absent from the treated group.
FIG. 43. Dihexa restores tyrosine hyroxlase staining, which is indicative of the presence of dopaminiergic neurons in the substantia nigra (SN). Two weeks after the induction of an unilateral 6-OHDA lesion, rats were treated with either 0.5 mg/kg Dihexa or an equivalent volume of vehicle ip. for 34 days.

Blood stability studies = conditions: not shown
[2] = Brain distribution of 3H-Dihexa after carotid infusion; assay type: in vivo, rat
Description: FIG. 44. […] Rats fitted with a carotid cannula were anesthetized and infused with 0.5 ml of isotonic saline containing 10 μCi of 3H-Dihexa and 2 μCi ^14C-Inulin, a vascular marker. Thirty minutes after infusion rats were decapitated, the brains removed, and various brain regions dissected. The tissues were then weighed and solubilized with NCS and 10 ml of scintillation was added. Samples were counted with a scintillation counter using two different windows to quantitate both ^3H and ^14C counts. ^3H/^14Cs were determined so that blood derived Dihexa contamination of tissues could be determined. The average ^3H/^14C from blood was 1687.

[3] = system: Dissociated hippocampal neurons; test: Neuroprotection from growth factor deprivation; assay type: cell-based; conditions: starved 72 hrs +/−HGF 5 ng/ml; Dihexa 10^−10 M and 10^−8M
Description: FIG. 39. […] Dissociated hippocampal neurons were starved for 72 hrs+/−HGF at sub-threshold concentrations 5 ng/ml and or Dihexa at 2 different concentrations 10^−10 M and 10^−8M. (**p<0.001,***p<0.0001; Mean+/−SEM).

MDCK cells = test: Augmentation of HGF-dependent cell scattering in MDCK cells; assay type: cell-based, canine; conditions: with HGF, Dihexa 10^−10 M to 10^−14M, four days
Description: augmentation of HGF-dependent c-Met phosphorylation in HEK293 cells, or 2) augmentation of HGF-dependent cell scattering in MDCK cells. All the compounds in Family one were tested using the c-Met phosphorylation assay. […]
MDCK cells were grown to 100% confluency on the coverslips in six-well plates and washed twice with PBS. The confluent coverslips were then aseptically transferred to new six well plates containing 900 μl serum free DMEM. Norleual, Hinge peptide, and/or HGF (2.5 ng/ml) were added to appropriate wells. Control wells received PBS vehicle. […] Media was removed and cells were fixed with methanol. Cells were stained with Diff-Quik Wright-Giemsa (Dade-Behring, Newark, Del.) and digital images were taken. Coverslips were removed with forceps and more digital images were captured. Pixel quantification of images was achieved using Image J and statistics were performed using Prism 5 and InStat v.3.05.
MDCK cells were grown to 100% confluency on the coverslips in six-well plates and washed twice with PBS. The confluent coverslips were then aseptically transferred to new six well plates containing 900 μl serum free DMEM. Norleual, Hinge peptide, and/or HGF (20 ng/ml) were added to appropriate wells. Control wells received PBS vehicle. […] Pixel quantification of images was achieved using Image J and statistics were performed using Prism 5 and InStat v.3.05.

rats = test: Morris water maze with i.c.v. Dihexa and HGF antagonist Hinge; assay type: in vivo, rat; conditions: scopolamine treated rats
[4] = system: CA1 neurons in coronal slices of rat hippocampus; test: Hippocampal long-term potentiation with theta burst stimulation; assay type: cell-based; conditions: Dihexa 1 μM applied 10 minutes prior to TBS
Description: FIG. 45. Effect of Dihexa (Hex) on hippocampal long-term potentiation (LTP) generated with theta burst (TBS) stimulation. LTP was monitored at CA1 neurons in coronal slices of rat hippocampus. Dihexa (1 μM) was applied 10 minutes prior to TBS. 1N=4. Dihexa application augmented LTP.

human HGF = target: T1, human HGF (Homo sapiens, UniProt P14210); test: HGF dimerization; assay type: biochemical; conditions: 30 minutes in the presence of heparin; N=6
T1 construct: purchased R&D Systems (Minneapolis, Minn.)
T1 sequence (P14210 32-728): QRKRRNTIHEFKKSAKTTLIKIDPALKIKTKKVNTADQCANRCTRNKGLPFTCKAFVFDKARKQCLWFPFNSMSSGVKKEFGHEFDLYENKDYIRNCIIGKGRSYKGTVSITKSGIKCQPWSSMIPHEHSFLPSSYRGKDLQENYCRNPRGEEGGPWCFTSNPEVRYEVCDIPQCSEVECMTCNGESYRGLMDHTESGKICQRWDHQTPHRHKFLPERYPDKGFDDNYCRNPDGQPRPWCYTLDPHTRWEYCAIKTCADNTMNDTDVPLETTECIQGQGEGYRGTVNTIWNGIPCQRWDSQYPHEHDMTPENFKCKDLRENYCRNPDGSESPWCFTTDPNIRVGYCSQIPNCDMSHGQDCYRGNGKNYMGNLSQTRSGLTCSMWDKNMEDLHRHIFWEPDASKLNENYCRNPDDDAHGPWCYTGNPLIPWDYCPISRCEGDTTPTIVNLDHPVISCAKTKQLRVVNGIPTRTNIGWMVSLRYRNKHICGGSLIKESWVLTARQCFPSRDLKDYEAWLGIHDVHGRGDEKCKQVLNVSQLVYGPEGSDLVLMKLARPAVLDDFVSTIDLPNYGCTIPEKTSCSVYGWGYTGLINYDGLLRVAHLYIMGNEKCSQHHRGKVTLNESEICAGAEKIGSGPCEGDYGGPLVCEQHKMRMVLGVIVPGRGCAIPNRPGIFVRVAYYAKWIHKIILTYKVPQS
Description: HGF dimerization was assessed using PAGE followed by silver staining (Kawas et al., 2011). Human HGF at a concentration of 0.08 ng/μl with or without 6-AH analogs was incubated with heparin at a final concentration of 5 μg/ml. Loading buffer was then added to each sample and the mixture separated by native PAGE using gradient Criterion XT precast gels (4-12% Bis-Tris; Biorad Laboratories, Hercules, Calif.). Next the gel was silver stained for the detection of the HGF monomers and dimers. Bands were quantitated from digital images using a UVP phosphoimager (Upland, Calif.).

[5] = 0.5 mg/kg ip, started two weeks after lesion

CCCCCC(=O)N[C@@H](Cc1ccc(O)cc1)C(=O)N[C@H](C(=O)NCCCCCC(N)=O)[C@@H](C)CC [Dihexa, N-hexanoic-Tyr-Ile-(6)-aminohexanoic amide] (Hexanoyl-Tyr-Ile-[Ahx]-NH2)
Protection of neurons from oxidative stress [1]: protects neurons from oxidative stress
Tyrosine hydroxylase staining in the substantia nigra (6-OHDA lesioned rats; 0.5 mg/kg ip for 34 days / six weeks): dramatic restoration of tyrosine hydroxylase (TH) staining; also recorded: completely restored the tyrosine hydroxylase staining in the SN
Gait analysis, stride length (6-OHDA lesioned rats; [5]): recovery of normal motor function; also recorded: completely restored the normal stride length
Rope hang test performance (6-OHDA lesioned rats; [5]): completely restores performance in the rope hang test; also recorded: completely restored the performance of the treated animals on the rope hang test
Recovery of SN TH staining (6-OHDA lesioned rats; three months of Dihexa treatment): ~100%
Time stable in the blood (Blood stability studies): over 5 hours
Distribution into brain regions ([2]; thirty minutes after carotid infusion of 3H-Dihexa with 14C-Inulin): concentrated in multiple brain regions
Brain level relative to blood ([2]; thirty minutes after delivery): 40 × blood
Average 3H/14C from blood ([2]; thirty minutes after infusion): 1687
Protection of neurons from growth factor deprivation [3]: protects neurons from growth factor deprivation
HGF-dependent MDCK cell scattering (MDCK cells): stimulate MDCK cell scattering; also recorded: markedly stimulates cell scattering even at picomolar affinities
HGF-dependent MDCK cell scattering (MDCK cells; listed as N-hexanoyl-Tyr-Ile-(6) aminohexamide): spectacularly augment HGF-dependent MDCK cell scattering
Mean latency to find the pedestal, day one (rats): 115.2 s
Mean latency to find the pedestal, final day (day 8) (rats): 62.3 s
Mean latency to find the pedestal, fourth day (rats): 63.0 s
Long-term potentiation [4]: enhances LTP; also recorded: augmented LTP
HGF dimerization (human HGF): blocks HGF dimerization
